How the values were obtained:
[1] = system: proliferating cells in the SGZ; assay: Prenatal treatment: BrdU-positive cells in the SGZ of P2 mice; format: in vivo, mouse
Description: Conception was determined by examining the vaginal plug. […] After sacrifice, brain was excised and weighed.
One of 20 sections (n=8-10) from the beginning to the end of the hippocampal formation were subjected to double-fluorescence immunohistochemistry for BrdU and NeuN. Sections were incubated overnight at 4° C. with a primary antibody, rat monoclonal anti-BrdU antibody (AbD Serotec), diluted 1:100 in 0.1% Triton X-100 in PBS and either mouse monoclonal anti-NeuN (Millipore Bioscience Research Reagents) diluted 1:400 in 0.1% Triton X-100 in PBS. Sections were then washed in 0.1% Triton X-100 in PBS for 40 min and incubated for 2 h with a Cy3-conjugated anti-rat IgG (1:200; Jackson Immunoresearch) secondary fluorescent antibody for BrdU immunohistochemistry and FITC-conjugated anti-mouse IgG (1:200; Jackson Immunoresearch) for NeuN immunohistochemistry.
BrdU-positive cells were sampled in the caudal subventricular zone (SVZ) of the lateral ventricle overlying the dentate gyrus and from the subgranular zone (SGZ) of the dentate gyrus (FIG. 10A). The caudal SVZ is the region that stretches from the beginning to the end of the hippocampal formation (BC: 3.27-4.84 mm). Since different regions of the ventricular zone (VZ) and SVZ give origin to neurons destined to different telecephalic areas (Brazel et al., 2003), we evaluated the effects of treatment both in the dorsal and lateral part of the SVZ (FIG. 10B). For cell counting, an area was traced enclosing the whole SVZ and all cells in this area were counted. While at later life stages, neural progenitor cells are only present in the SGZ of the dentate gyrus, in P2 pups proliferating cells can be detected in the perspective molecular layer and hilus. Therefore, cells were counted within a manually-traced area enclosing the whole dentate gyrus (FIG. 10B). […] Quantification of BrdU-labeled nuclei was conducted in every 20th section. The total number of BrdU labeled cells in the SVZ and SGZ was estimated by multiplying the number counted in the sampled sections by the inverse of the section sampling fraction (ssf= 1/20).

[2] = system: NPCs from the SVZ of Ts65Dn mice; assay: Proliferation of NPC cultures (Cell Titer-Glo); format: cell-based, mouse; details: 96 h
Description: Cells were isolated from the subventricular zone (SVZ) of the lateral ventricle and the subgranular zone (SGZ) of the hippocampal dentate gyrus (DG) of newborn (P1-P2) euploid and Ts65Dn mice. Briefly, brains were removed, the SVZ and SGZ regions were isolated and individually collected in ice-cold PIPES buffer pH 7.4. After centrifugation, tissue was digested for 10 min at 37° C. using Trypsin/EDTA 0.25% (Life Technologies) aided by gentle mechanical dissociation. Cell suspension from each individual mouse was plated onto 25 cm^2 cell-culture flask (Thermo Fisher Scientific) and cultured as floating neurospheres in medium containing basic fibroblast growth factor (bFGF, 10 ng/ml; Peprotech) and epidermal growth factor (EGF, 20 ng/ml; Peprotech) using an established protocol (Meneghini et al., 2014). […] Cell proliferation was quantified as relative luminescence units (RLU) values using Cell Titer-Glo viability assay reagent (Promega) on aVictor^3-V plate reader (PerkinElmer). […] In each experiment, five fields/well (corresponding to about 150-200 cells/well) were counted with a 60× objective by a Leica DMIRB inverted fluorescence microscope. Immunoreactive cells were counted and their percentage over total viable cells was calculated. […]

SMILES: O=c1cc(-c2ccccc2)oc2c(O)c(O)ccc12 [7,8-DHF, 7,8-dihydroxyflavone]
- total number of BrdU-positive cells in the SGZ, treated Ts65Dn vs untreated euploid mice ([1]; P2, treated E10-E20/21): no differences in total number of BrdU-positive cells
- total number of BrdU-positive cells in the SGZ ([1]; P2 Ts65Dn mice, dams 5 mg/kg s.c. E10-E20/21, untreated Ts65Dn approx. 12850, euploid approx. 17500): approximately 16800
- increase in cell number in the SGZ vs untreated Ts65Dn ([1]; P2 Ts65Dn mice, treated E10-E20/21): +30%
- proliferation rate of trisomic NPCs ([2]; highest concentration 10.0 μM): reduced proliferation
- proliferation rate of trisomic NPCs ([2]; tested concentrations 0.3-10.0 μM, vs vehicle): none of the tested concentrations was able to increase the proliferation rate
